{"source": "ChEMBL document CHEMBL5108027", "about": "“An unanticipated discovery of novel naphthalimidopropanediols as potential broad-spectrum antibacterial members” (Eur J Med Chem, 2022)", "assay_type_in_all_cases": "functional", "key": {"Staphylococcus aureus [1]": {"tested_on": "Staphylococcus aureus", "assay": "Antibacterial activity against Staphylococcus aureus ATCC 25923 measured by Muller-Hinton broth based microdilution assay"}, "Acinetobacter baumannii": {"tested_on": "Acinetobacter baumannii", "assay": "Antibacterial activity against Acinetobacter baumannii measured by Muller-Hinton broth based microdilution assay"}, "Pseudomonas aeruginosa [2]": {"tested_on": "Pseudomonas aeruginosa", "assay": "Antibacterial activity against Pseudomonas aeruginosa measured by Muller-Hinton broth based microdilution assay"}, "Enterococcus faecalis": {"tested_on": "Enterococcus faecalis", "assay": "Antibacterial activity against Enterococcus faecalis measured by Muller-Hinton broth based microdilution assay"}, "Escherichia coli [3]": {"tested_on": "Escherichia coli", "assay": "Antibacterial activity against Escherichia coli measured by Muller-Hinton broth based microdilution assay"}, "Escherichia coli [4]": {"tested_on": "Escherichia coli", "assay": "Antibacterial activity against Escherichia coli ATCC 25922 measured by Muller-Hinton broth based microdilution assay"}, "Staphylococcus aureus [5]": {"tested_on": "Staphylococcus aureus", "assay": "Antibacterial activity against methicillin-resistant Staphylococcus aureus N315 measured by Muller-Hinton broth based microdilution assay"}, "Pseudomonas aeruginosa [6]": {"tested_on": "Pseudomonas aeruginosa", "assay": "Antibacterial activity against Pseudomonas aeruginosa ATCC 27853 measured by Muller-Hinton broth based microdilution assay"}, "Staphylococcus aureus [7]": {"tested_on": "Staphylococcus aureus", "assay": "Antibacterial activity against Staphylococcus aureus measured by Muller-Hinton broth based microdilution assay"}, "Staphylococcus aureus [8]": {"tested_on": "Staphylococcus aureus", "assay": "Antibacterial activity against Staphylococcus aureus ATCC 29213 measured by Muller-Hinton broth based microdilution assay"}, "Klebsiella pneumoniae": {"tested_on": "Klebsiella pneumoniae", "assay": "Antibacterial activity against Klebsiella pneumoniae measured by Muller-Hinton broth based microdilution assay"}, "Pseudomonas aeruginosa [9]": {"tested_on": "Pseudomonas aeruginosa", "assay": "Antibacterial activity against Pseudomonas aeruginosa assessed as fold increase in MIC measured after 16 passages by resistance development assay"}, "Staphylococcus aureus [10]": {"tested_on": "Staphylococcus aureus", "assay": "Antibacterial activity against Staphylococcus aureus assessed as fold increase in MIC measured after 16 passages by resistance development assay"}}}
{"smiles": "O=C1c2cccc3c(N/N=C/c4nccs4)ccc(c23)C(=O)N1C(CO)CO", "values": [{"measurement": "MIC", "setting": "Staphylococcus aureus [1]", "value": 16, "unit": "µg/mL"}, {"measurement": "MIC", "setting": "Acinetobacter baumannii", "value": 32, "unit": "µg/mL"}, {"measurement": "MIC", "setting": "Pseudomonas aeruginosa [2]", "value": 32, "unit": "µg/mL"}, {"measurement": "MIC", "setting": "Enterococcus faecalis", "value": 32, "unit": "µg/mL"}, {"measurement": "MIC", "setting": "Escherichia coli [3]", "value": 32, "unit": "µg/mL"}, {"measurement": "MIC", "setting": "Escherichia coli [4]", "value": 32, "unit": "µg/mL"}, {"measurement": "MIC", "setting": "Staphylococcus aureus [5]", "value": 32, "unit": "µg/mL"}, {"measurement": "MIC", "setting": "Pseudomonas aeruginosa [6]", "value": 16, "unit": "µg/mL"}, {"measurement": "MIC", "setting": "Staphylococcus aureus [7]", "value": 64, "unit": "µg/mL"}, {"measurement": "MIC", "setting": "Staphylococcus aureus [8]", "value": 32, "unit": "µg/mL"}, {"measurement": "MIC", "setting": "Klebsiella pneumoniae", "value": 64, "unit": "µg/mL"}]}
{"smiles": "CCn1cc(C(=O)O)c(=O)c2cc(F)c(N3CCNCC3)cc21", "note": "[NORFLOXACIN]", "values": [{"measurement": "MIC", "setting": "Staphylococcus aureus [1]", "value": 16, "unit": "µg/mL"}, {"measurement": "MIC", "setting": "Acinetobacter baumannii", "value": 1, "unit": "µg/mL"}, {"measurement": "MIC", "setting": "Pseudomonas aeruginosa [2]", "value": 4, "unit": "µg/mL"}, {"measurement": "MIC", "setting": "Enterococcus faecalis", "value": 8, "unit": "µg/mL"}, {"measurement": "fold change (FC)", "setting": "Pseudomonas aeruginosa [9]", "value": 128}, {"measurement": "MIC", "setting": "Escherichia coli [3]", "value": 2, "unit": "µg/mL"}, {"measurement": "fold change (FC)", "setting": "Staphylococcus aureus [10]", "value": 64}, {"measurement": "MIC", "setting": "Escherichia coli [4]", "value": 4, "unit": "µg/mL"}, {"measurement": "MIC", "setting": "Staphylococcus aureus [5]", "value": 16, "unit": "µg/mL"}, {"measurement": "MIC", "setting": "Pseudomonas aeruginosa [6]", "value": 2, "unit": "µg/mL"}, {"measurement": "MIC", "setting": "Staphylococcus aureus [7]", "value": 8, "unit": "µg/mL"}, {"measurement": "MIC", "setting": "Staphylococcus aureus [8]", "value": 16, "unit": "µg/mL"}, {"measurement": "MIC", "setting": "Klebsiella pneumoniae", "value": 4, "unit": "µg/mL"}]}
{"smiles": "O=C1c2cccc3c(N/N=C/c4ncc[nH]4)ccc(c23)C(=O)N1C(CO)CO", "values": [{"measurement": "MIC", "setting": "Staphylococcus aureus [1]", "value": 64, "unit": "µg/mL"}, {"measurement": "MIC", "setting": "Acinetobacter baumannii", "value": 64, "unit": "µg/mL"}, {"measurement": "MIC", "setting": "Pseudomonas aeruginosa [2]", "value": 8, "unit": "µg/mL"}, {"measurement": "MIC", "setting": "Enterococcus faecalis", "value": 64, "unit": "µg/mL"}, {"measurement": "MIC", "setting": "Escherichia coli [3]", "value": 16, "unit": "µg/mL"}, {"measurement": "MIC", "setting": "Escherichia coli [4]", "value": 64, "unit": "µg/mL"}, {"measurement": "MIC", "setting": "Staphylococcus aureus [5]", "value": 64, "unit": "µg/mL"}, {"measurement": "MIC", "setting": "Pseudomonas aeruginosa [6]", "value": 4, "unit": "µg/mL"}, {"measurement": "MIC", "setting": "Staphylococcus aureus [7]", "value": 32, "unit": "µg/mL"}, {"measurement": "MIC", "setting": "Staphylococcus aureus [8]", "value": 128, "unit": "µg/mL"}, {"measurement": "MIC", "setting": "Klebsiella pneumoniae", "value": 64, "unit": "µg/mL"}]}
{"smiles": "CCn1cc(/C=N/Nc2ccc3c4c(cccc24)C(=O)N(C(CO)CO)C3=O)c2ccccc21", "values": [{"measurement": "MIC", "setting": "Staphylococcus aureus [1]", "value": 16, "unit": "µg/mL"}, {"measurement": "MIC", "setting": "Acinetobacter baumannii", "value": 64, "unit": "µg/mL"}, {"measurement": "MIC", "setting": "Pseudomonas aeruginosa [2]", "value": 16, "unit": "µg/mL"}, {"measurement": "MIC", "setting": "Enterococcus faecalis", "value": 32, "unit": "µg/mL"}, {"measurement": "MIC", "setting": "Escherichia coli [3]", "value": 16, "unit": "µg/mL"}, {"measurement": "MIC", "setting": "Escherichia coli [4]", "value": 32, "unit": "µg/mL"}, {"measurement": "MIC", "setting": "Staphylococcus aureus [5]", "value": 64, "unit": "µg/mL"}, {"measurement": "MIC", "setting": "Pseudomonas aeruginosa [6]", "value": 32, "unit": "µg/mL"}, {"measurement": "MIC", "setting": "Staphylococcus aureus [7]", "value": 8, "unit": "µg/mL"}, {"measurement": "MIC", "setting": "Staphylococcus aureus [8]", "value": 32, "unit": "µg/mL"}, {"measurement": "MIC", "setting": "Klebsiella pneumoniae", "value": 8, "unit": "µg/mL"}]}
{"smiles": "CCCCCCCCCCCCn1cc(/C=N/Nc2ccc3c4c(cccc24)C(=O)N(C(CO)CO)C3=O)c2ccccc21", "values": [{"measurement": "MIC", "setting": "Staphylococcus aureus [1]", "value": 32, "unit": "µg/mL"}, {"measurement": "MIC", "setting": "Acinetobacter baumannii", "value": 64, "unit": "µg/mL"}, {"measurement": "MIC", "setting": "Pseudomonas aeruginosa [2]", "value": 128, "unit": "µg/mL"}, {"measurement": "MIC", "setting": "Enterococcus faecalis", "value": 64, "unit": "µg/mL"}, {"measurement": "MIC", "setting": "Escherichia coli [3]", "value": 32, "unit": "µg/mL"}, {"measurement": "MIC", "setting": "Escherichia coli [4]", "value": 64, "unit": "µg/mL"}, {"measurement": "MIC", "setting": "Staphylococcus aureus [5]", "value": 64, "unit": "µg/mL"}, {"measurement": "MIC", "setting": "Pseudomonas aeruginosa [6]", "value": 32, "unit": "µg/mL"}, {"measurement": "MIC", "setting": "Staphylococcus aureus [7]", "value": 8, "unit": "µg/mL"}, {"measurement": "MIC", "setting": "Staphylococcus aureus [8]", "value": 64, "unit": "µg/mL"}, {"measurement": "MIC", "setting": "Klebsiella pneumoniae", "value": 64, "unit": "µg/mL"}]}
{"smiles": "O=C1c2cccc3c(N/N=C/c4ccc(O)c(O)c4O)ccc(c23)C(=O)N1C(CO)CO", "values": [{"measurement": "MIC", "setting": "Staphylococcus aureus [1]", "value": 32, "unit": "µg/mL"}, {"measurement": "MIC", "setting": "Acinetobacter baumannii", "value": 16, "unit": "µg/mL"}, {"measurement": "MIC", "setting": "Pseudomonas aeruginosa [2]", "value": 64, "unit": "µg/mL"}, {"measurement": "MIC", "setting": "Enterococcus faecalis", "value": 8, "unit": "µg/mL"}, {"measurement": "MIC", "setting": "Escherichia coli [3]", "value": 64, "unit": "µg/mL"}, {"measurement": "MIC", "setting": "Escherichia coli [4]", "value": 16, "unit": "µg/mL"}, {"measurement": "MIC", "setting": "Staphylococcus aureus [5]", "value": 16, "unit": "µg/mL"}, {"measurement": "MIC", "setting": "Pseudomonas aeruginosa [6]", "value": 4, "unit": "µg/mL"}, {"measurement": "MIC", "setting": "Staphylococcus aureus [7]", "value": 4, "unit": "µg/mL"}, {"measurement": "MIC", "setting": "Staphylococcus aureus [8]", "value": 64, "unit": "µg/mL"}, {"measurement": "MIC", "setting": "Klebsiella pneumoniae", "value": 2, "unit": "µg/mL"}]}
